Like-named read-outs stand apart in the source and are kept apart here.
Assays:
[1] = test system: MPN Cell Lines (JAK2 and non JAK2 populations); assay: Efficacy of MPN standard of care drugs tested on cell lines; assay type: cell-based; conditions: for sensitive in % of JAK2 Cell line populations: JAK2 cell lines; for resistance in % of non JAK2 population: non JAK2 cell lines
Excerpt: (§1) Efficacy comparison study of standard of care drugs in MPN Cell Lines and Patients is provided hereunder: […]

[2] = test system: MPN patients (JAK2 and non JAK2 populations); assay: Efficacy of standard of care drugs on patient cohort; conditions: for sensitive in % of JAK2 patient populations: JAK2 patients; for resistance in % of non JAK2 patient's population: non JAK2 patients
Excerpt: as §1

[3] = test system: patients with JAK2 aberration, Chromosome 8 / Chromosome 9 aberration; assay: Analysis of Ruxolitinib non-responder cases in JAK2 aberration segment (efficacy score, chromosome 8/9 genes)
Excerpt: Next, screening was done for all patient's resistant to Ruxolitinib (JAKAFI®) but sensitive to the drug combination of CQ+M+S.

[4] = test system: Jakafi resistant JAK2 V617F harboring BaF3 cell-line; conditions: metformin 0.25 mM, 0.5 mM, 1 mM, 5 mM and 10 mM
Description: Relative growth of cells was assessed using MTT assay.
Viable cells % was assessed using MTT assay.
Viable cells % was assessed using MTT assay (FIG. 7a).

[5] = in vivo; cited from earlier work
[6] = in vivo, cited from earlier work
[7] = cited from earlier work
[8] = after meal, chloroquine 200 mg morning, metformin 1250 mg morning and evening, rosuvastatin 20 mg evening

O=C1CCC(N2C(=O)c3ccccc3C2=O)C(=O)N1 (stereo not shown) [Thalidomide]
sensitive in % of JAK2 Cell line populations [1]: 75% | resistance in % of non JAK2 population [1]: 16.67% | sensitive in % of JAK2 patient populations [2]: 33.17% | resistance in % of non JAK2 patient's population [2]: 75.61%

Nc1ncn([C@@H]2O[C@H](CO)[C@@H](O)[C@H]2O)c(=O)n1 [Azacytidine]
sensitive in % of JAK2 Cell line populations [1]: 50% | resistance in % of non JAK2 population [1]: 50% | sensitive in % of JAK2 patient populations [2]: 34.16% | resistance in % of non JAK2 patient's population [2]: 74%

Cc1ccc(NC(=O)c2ccc(CN3CCN(C)CC3)cc2)cc1Nc1nccc(-c2cccnc2)n1 [Imatinib]
sensitive in % of JAK2 Cell line populations [1]: 0% | resistance in % of non JAK2 population [1]: 83.33% | sensitive in % of JAK2 patient populations [2]: 0.5% | resistance in % of non JAK2 patient's population [2]: 100%

Nc1ncn([C@H]2C[C@H](O)[C@@H](CO)O2)c(=O)n1 [Decitabine]
sensitive in % of JAK2 Cell line populations [1]: 50% | resistance in % of non JAK2 population [1]: 50% | sensitive in % of JAK2 patient populations [2]: 34.16% | resistance in % of non JAK2 patient's population [2]: 74%

CN(C)C(=N)N=C(N)N [Metformin, metformin]
Response ([3]; Gene TGFBR1, Chromosome 9, Trisomy 9): Inclusion | cell viability, viable cells % (MTT) [4]: steady decrease in cell viability | Diarrhoea, All Grades [5]: 53% | Headache, All Grades [5]: 5.7% | Nausea, All Grades [5]: 25.5% | grade ¾ toxicity [5]: rarely reported | MTD (maximum tolerated dose) [6]: 2500 mg/day | MTD (maximum tolerated dose) ([6]; listed as metformin): about 2500 mg/day | Peak Concentration at Dosage ([7]; in vivo): 5.8 µM

CCN(CC)CCCC(C)Nc1ccnc2cc(Cl)ccc12 (stereo not shown) [Chloroquine, chloroquine]
Response ([3]; Gene MCL1, Chromosome 8, Trisomy 8): Inclusion | grade ¾ toxicity [5]: rarely reported | MTD (maximum tolerated dose) [6]: 600 mg/day | MTD (maximum tolerated dose) ([6]; listed as chloroquine): about 600 mg/day | Peak Concentration at Dosage [7, 8]: 1.18 µM | t½ ([7]; in vivo): 20 to 60 days

CC(C)c1nc(N(C)S(C)(=O)=O)nc(-c2ccc(F)cc2)c1/C=C/[C@@H](O)C[C@@H](O)CC(=O)O [Rosuvastatin, rosuvastatin]
Headache, All Grades [5]: 8.5% | Nausea, All Grades [5]: 6.3% | MTD (maximum tolerated dose) [6]: 60 mg/day | MTD (maximum tolerated dose) ([6]; listed as rosuvastatin): about 60 mg/day | Peak Concentration at Dosage [7, 8]: 0.09 µM

N#CC[C@H](C1CCCC1)n1cc(-c2ncnc3[nH]ccc23)cn1 [Ruxolitinib, ruxolitinib]
sensitive in % of JAK2 Cell line populations [1]: 75% | resistance in % of non JAK2 population [1]: 83.33% | sensitive in % of JAK2 patient populations [2]: 81.18% | resistance in % of non JAK2 patient's population [2]: 87.81% | Anemia, All Grades [5]: 96.1% | Headache, All Grades [5]: 14.8% | Neutropenia, All Grades [5]: 18.7% | Thrombocytopenia, All Grades [5]: 69.7% | patients with Anemia of grade 3 or more [5]: 40-45%

NC(=O)NO [Hydroxyurea]
sensitive in % of JAK2 Cell line populations [1]: 0% | resistance in % of non JAK2 population [1]: 100% | sensitive in % of JAK2 patient populations [2]: 1% | resistance in % of non JAK2 patient's population [2]: 100%

— patent US20220305000A1 (Cellworks Group Inc., priority 2021, published 2022)
